From patent publication US20230293644A1, “ANTI-INFLAMMATORY PEPTIDES AND COMPOSITION COMPRISING THE SAME” (Gemvax & KAEL Co., Ltd., priority 2012, published 2023) come the findings set out here.

The subject of this experiment is TNF-α. In words: Screening of TNF-α inhibitory effect, LPS-stimulated PBMC-derived monocytes (Example 2). The class given is cell-based, human. To be noted: 4 uM peptide, 2 hrs, LPS 10 ng/ml; for TNF-α inhibiting effect compared to the group treated with LPS and estrogen: estrogen 20 nM. The procedure:
PBMC (peripheral blood mononuclear cells) layer was separated from blood samples (50 ml) collected in healthy subjects using Biocoll Separating Solution (Biochrom AG, Berlin, Germany). The collected PBMC were enriched in RPMI 1640 medium containing 20% human serum for 30 mins, and then transferred to 100-mm polystyeren cell culture plate coated with human serum for incubation for 2 hrs at 37° C., 5% CO^2 incubator. Monocytes were detached from the bottom of the plate using cold PBS, and incubated to reach the number of 1 × 10^5 cell/well in 96-well plate with RPMI 1640 medium (supplemented with penicillinstreptomycin; […], human serum; 20%) over night.
ELISA was performed to find out how the peptides of the PEP RIA series influence TNF-α level. PBMC-derived monocytes were incubated to reach the number of 1 × 10^5 cells per well in a 96-well plate and then treated with LPS (lipopolysaccharide; 10 ng/ml, Sigma) for 2 hours. To the monocytes that were washed three times with PBS, OPTI-MEM culture medium was added to induce cell starvation for an hour, 4 µM of the peptide was taken out and incubated for 2 hours. There were three negative control groups. The first group was not treated with anything. The second group that was treated with estrogen (in this experiment, estradiol was used as a kind of estrogen). The third group was treated with LPS (10 ng/ml) or with LPS (10 ng/ml) as well as estrogen (20 nM). PEP1 that was confirmed to have TNF-α inhibiting activity was used as a positive control to measure TNF-α inhibiting activity. After incubation, TNF-α was measured by following the ELISA kit manual (R&D, Minneapolis, MN, USA). The details of quantification method can be found in Experiment 2.2 of Example 1.
Using the method stated above, Peptides with TNF-α inhibiting effect were screened. PBMC-derived monocytes were stimulated with LPS (10 ng/ml), which is endotoxin, for 2 hours and were induced to starve by adding OPTI-MEM for 1 hour. After that, 4 uM of 179 peptides were treated and incubated for 2 hrs. The amount of TNF-α in the cell culture medium was measured using ELISA, and the peptides with TNF-α inhibiting effect were screened by comparing to the negative and positive controls (FIG. 3 to FIG. 23).

“ARPALLTSRLRFIP (listed as Homo sapiens) [SEQ ID NO: 104]”: the “TNF-α inhibiting effect compared to the control group treated with only LPS” value is on record as “showed TNF-α inhibiting effect”. Still for that read-out and setting: then “VRQHREARPALLTSRLRFIPKPDGL (listed as Homo sapiens) [SEQ ID NO: 35]”, with “showed TNF-α inhibiting effect”. On to “LTSRLR (listed as Homo sapiens) [SEQ ID NO: 156]”, for which the “TNF-α inhibiting effect compared to the control group treated with only LPS” value is “showed TNF-α inhibiting effect”; the “TNF-α inhibiting effect compared to the group treated with LPS and estrogen” value was “showed TNF-α inhibiting effect”. Regarding “EARPALLTS (listed as Homo sapiens) [SEQ ID NO: 84]”, the “TNF-α inhibiting effect compared to the control group treated with only LPS” value is “showed TNF-α inhibiting effect”. On to “ARPALL (listed as Homo sapiens) [SEQ ID NO: 117]”, for which the “TNF-α inhibiting effect compared to the control group treated with only LPS” value was “showed TNF-α inhibiting effect”; the “TNF-α inhibiting effect compared to the group treated with LPS and estrogen” value is reported as “showed TNF-α inhibiting effect”. Take “EVRQHREARPALLTSRLRFIPKPDG (listed as Homo sapiens) [SEQ ID NO: 43]”: the “TNF-α inhibiting effect compared to the control group treated with only LPS” value was “showed TNF-α inhibiting effect”; the “TNF-α inhibiting effect compared to the group treated with LPS and estrogen” value is given as “showed TNF-α inhibiting effect”. As for “EARPALLTSRLRFIPKPDGLRPIVN (listed as Homo sapiens) [SEQ ID NO: 72]”, the “TNF-α inhibiting effect compared to the control group treated with only LPS” value was “showed TNF-α inhibiting effect”; the “TNF-α inhibiting effect compared to the group treated with LPS and estrogen” value is listed as “showed TNF-α inhibiting effect”. As to “EVRQHREARPALLTSRLRFIPKPDGL (listed as Homo sapiens) [SEQ ID NO: 44]”, the “TNF-α inhibiting effect compared to the control group treated with only LPS” value is “showed TNF-α inhibiting effect”; the “TNF-α inhibiting effect compared to the group treated with LPS and estrogen” value is “showed TNF-α inhibiting effect”. In the case of “RPALLTSRLRFI (listed as Homo sapiens) [SEQ ID NO: 105]”, the “TNF-α inhibiting effect compared to the control group treated with only LPS” value is recorded as “showed TNF-α inhibiting effect”. Consider “VRQHREARPALLTSRLRFIPKPDG (listed as Homo sapiens) [SEQ ID NO: 34]”, for which the “TNF-α inhibiting effect compared to the control group treated with only LPS” value is listed as “showed TNF-α inhibiting effect”; the “TNF-α inhibiting effect compared to the group treated with LPS and estrogen” value was “showed TNF-α inhibiting effect”. “SRLRFI (listed as Homo sapiens) [SEQ ID NO: 166]”: the “TNF-α inhibiting effect compared to the control group treated with only LPS” value was “showed TNF-α inhibiting effect”; the “TNF-α inhibiting effect compared to the group treated with LPS and estrogen” value is “showed TNF-α inhibiting effect”. As to “ARPALLTSRLRFIPK (listed as Homo sapiens) [SEQ ID NO: 91]”, the “TNF-α inhibiting effect compared to the control group treated with only LPS” value is “showed TNF-α inhibiting effect”; the “TNF-α inhibiting effect compared to the group treated with LPS and estrogen” value is recorded as “showed TNF-α inhibiting effect”.

Turning to “ARPALLTSRLRF (listed as Homo sapiens) [SEQ ID NO: 111]”, the “TNF-α inhibiting effect compared to the control group treated with only LPS” value is given as “showed TNF-α inhibiting effect”. Still for that read-out and setting: then “ARPA (listed as Homo sapiens) [SEQ ID NO: 119]”, with “showed TNF-α inhibiting effect”. On to “EARPALLTSR (listed as Homo sapiens) [SEQ ID NO: 83]”, for which the “TNF-α inhibiting effect compared to the control group treated with only LPS” value is “showed TNF-α inhibiting effect”; the “TNF-α inhibiting effect compared to the group treated with LPS and estrogen” value is reported as “showed TNF-α inhibiting effect”. Turning to “AEVRQHREARPALLTSRLRFIPKPDGLRPI (listed as Homo sapiens) [SEQ ID NO: 58]”, the “TNF-α inhibiting effect compared to the control group treated with only LPS” value is listed as “showed TNF-α inhibiting effect”. In the case of “EAEVRQHREARPALLTSRLRFIPK (listed as Homo sapiens) [SEQ ID NO: 9]”, the “TNF-α inhibiting effect compared to the control group treated with only LPS” value was “showed TNF-α inhibiting effect”; the “TNF-α inhibiting effect compared to the group treated with LPS and estrogen” value is given as “showed TNF-α inhibiting effect”. Regarding “RFIP (listed as Homo sapiens) [SEQ ID NO: 177]”, the “TNF-α inhibiting effect compared to the control group treated with only LPS” value is reported as “showed TNF-α inhibiting effect”. “EARPALLTSRLR (listed as Homo sapiens) [SEQ ID NO: 81]”: the “TNF-α inhibiting effect compared to the control group treated with only LPS” value is reported as “showed TNF-α inhibiting effect”; the “TNF-α inhibiting effect compared to the group treated with LPS and estrogen” value is listed as “showed TNF-α inhibiting effect”.

In the case of “VRQHREARPALLTSRLRFIPKPD (listed as Homo sapiens) [SEQ ID NO: 33]”, the “TNF-α inhibiting effect compared to the control group treated with only LPS” value is “showed TNF-α inhibiting effect”; the “TNF-α inhibiting effect compared to the group treated with LPS and estrogen” value is reported as “showed TNF-α inhibiting effect”. For the substance “LLTSRLR (listed as Homo sapiens) [SEQ ID NO: 149]”, the “TNF-α inhibiting effect compared to the control group treated with only LPS” value is “showed TNF-α inhibiting effect”; the “TNF-α inhibiting effect compared to the group treated with LPS and estrogen” value is reported as “showed TNF-α inhibiting effect”. Consider “LSEAEVRQHREARPALLTSRLRFIPK (listed as Homo sapiens) [SEQ ID NO: 11]”, for which the “TNF-α inhibiting effect compared to the control group treated with only LPS” value is listed as “showed TNF-α inhibiting effect”; the “TNF-α inhibiting effect compared to the group treated with LPS and estrogen” value is “showed TNF-α inhibiting effect”.

Turning to “ARPAL (listed as Homo sapiens) [SEQ ID NO: 118]”, the “TNF-α inhibiting effect compared to the control group treated with only LPS” value is given as “showed TNF-α inhibiting effect”.

Take “QHREARPALLTSRLRFIPKPDGLRPI (listed as Homo sapiens) [SEQ ID NO: 62]”: the “TNF-α inhibiting effect compared to the control group treated with only LPS” value is “showed TNF-α inhibiting effect”; the “TNF-α inhibiting effect compared to the group treated with LPS and estrogen” value is recorded as “showed TNF-α inhibiting effect”. Consider “HREARPALLTSRLRFIPKP (listed as Homo sapiens) [SEQ ID NO: 17]”, for which the “TNF-α inhibiting effect compared to the control group treated with only LPS” value was “showed TNF-α inhibiting effect”; the “TNF-α inhibiting effect compared to the group treated with LPS and estrogen” value is “showed TNF-α inhibiting effect”. “ELSEAEVRQHREARPALLTSRLRFIPK (listed as Homo sapiens) [SEQ ID NO: 12]”: the “TNF-α inhibiting effect compared to the control group treated with only LPS” value is “showed TNF-α inhibiting effect”. With “HREARPALLTSRLRFIPKPDGLRPI (listed as Homo sapiens) [SEQ ID NO: 63]”, the “TNF-α inhibiting effect compared to the control group treated with only LPS” value is given as “showed TNF-α inhibiting effect”; the “TNF-α inhibiting effect compared to the group treated with LPS and estrogen” value is “showed TNF-α inhibiting effect”. For “EARP (listed as Homo sapiens) [SEQ ID NO: 89]”, the “TNF-α inhibiting effect compared to the control group treated with only LPS” value is reported as “showed TNF-α inhibiting effect”; the “TNF-α inhibiting effect compared to the group treated with LPS and estrogen” value is “showed TNF-α inhibiting effect”. For “REARPALLTSRLRFIPKPDGLRPI (listed as Homo sapiens) [SEQ ID NO: 64]”, the “TNF-α inhibiting effect compared to the control group treated with only LPS” value is “showed TNF-α inhibiting effect”; the “TNF-α inhibiting effect compared to the group treated with LPS and estrogen” value is given as “showed TNF-α inhibiting effect”. “ARPALLT (listed as Homo sapiens) [SEQ ID NO: 116]”: the “TNF-α inhibiting effect compared to the control group treated with only LPS” value is “showed TNF-α inhibiting effect”; the “TNF-α inhibiting effect compared to the group treated with LPS and estrogen” value is reported as “showed TNF-α inhibiting effect”.

Consider “RQHREARPALLTSRLRFIPKPD (listed as Homo sapiens) [SEQ ID NO: 26]”, for which the “TNF-α inhibiting effect compared to the control group treated with only LPS” value is listed as “showed TNF-α inhibiting effect”; the “TNF-α inhibiting effect compared to the group treated with LPS and estrogen” value is reported as “showed TNF-α inhibiting effect”. With “SRLRF (listed as Homo sapiens) [SEQ ID NO: 167]”, the “TNF-α inhibiting effect compared to the control group treated with only LPS” value was “showed TNF-α inhibiting effect”; the “TNF-α inhibiting effect compared to the group treated with LPS and estrogen” value was “showed TNF-α inhibiting effect”.

As to “TSRLRFIPK (listed as Homo sapiens) [SEQ ID NO: 97]”, the “TNF-α inhibiting effect compared to the control group treated with only LPS” value is “showed TNF-α inhibiting effect”; the “TNF-α inhibiting effect compared to the group treated with LPS and estrogen” value was “showed TNF-α inhibiting effect”. Take “AEVRQHREARPALLTSRLRFIPKPDGL (listed as Homo sapiens) [SEQ ID NO: 55]”: the “TNF-α inhibiting effect compared to the control group treated with only LPS” value is recorded as “showed TNF-α inhibiting effect”; the “TNF-α inhibiting effect compared to the group treated with LPS and estrogen” value was “showed TNF-α inhibiting effect”. For the substance “LLTSRLRF (listed as Homo sapiens) [SEQ ID NO: 148]”, the “TNF-α inhibiting effect compared to the control group treated with only LPS” value is on record as “showed TNF-α inhibiting effect”; the “TNF-α inhibiting effect compared to the group treated with LPS and estrogen” value was “showed TNF-α inhibiting effect”.

Regarding “RPALLTSRLRFIPK (listed as Homo sapiens) [SEQ ID NO: 92]”, the “TNF-α inhibiting effect compared to the control group treated with only LPS” value is on record as “showed TNF-α inhibiting effect”.
